Source: US6403606B1, “Thienopyridine derivatives and their use” (Takeda Chemical Industries Ltd., priority 1996, dated 2002)

melting point | Compound
99 to 101 °C | CCOC(=O)c1c(CN2CCC(C(=O)OCC)CC2)nc2sc3c(c2c1-c1ccc(OC)c(OC)c1)CCN(C(=O)c1ccc(Cl)cc1)C3 [Example 3A, ethyl 7-(4-chlorobenzoyl)-4-(3,4-dimethoxyphenyl)-2-(4-ethoxycarbonylpiperidinomethyl)-5,6,7,8-tetrahydrothieno-[2,3-b:5,4-c′]dipyridine-3-carboxylate]
166 to 167 °C | CCOC(=O)c1c2c(cn1Cn1cncn1)C1=C(NC(C(=O)OCc3ccccc3)CC1)[SH]2c1ccc(OC)c(OC)c1 (stereo not shown) [Example 17A, ethyl 2-benzyloxycarbonyl-8-(3,4-dimethoxyphenyl)-2,3-dihydro-6-(1,2,4-triazol-1-ylmethyl)-1H-pyrrolo[3′,4′:4,5]thieno[2,3-b]pyridine-7-carboxylate]
153 to 154 °C | COc1ccc(-c2c(Cl)c(CNS(=O)(=O)c3ccccc3)nc3sc4c(c23)CCN(Cc2ccccc2)C4)cc1OC [Example 19B, 7-benzyl-3-chloro-4-(3,4-dimethoxyphenyl)-2-phenylsulfonylaminomethyl-5,6,7,8-tetrahydrothieno[2,3-b:5,4-c′]dipyridine]
141 to 142 °C | CCOC(=O)c1c(CN(CC)CC)nc2sc3ccncc3c2c1-c1ccc(OC)c(OC)c1 [Example 55A, ethyl 2-diethylaminomethyl-4-(3,4-dimethoxyphenyl)thieno[2,3-b:4,5-c′]dipyridine-3-carboxylate]
184 to 185 °C | CCOC(=O)c1c(CCc2c[nH]nn2)nc2sc3c(c2c1-c1ccc(OC)c(OC)c1)CCN(C(=O)c1ccccc1)C3 [Example 24A, ethyl 7-benzoyl-4-(3,4-dimethoxyphenyl)-5,6,7,8-tetrahydro-2-[2-(1,2,3-triazol-4-yl)ethyl]thieno[2,3-b:5,4-c′]dipyridine-3-carboxylate]
172 to 174 °C | CCOC(=O)c1c(Cn2cncn2)nc2sc3cnccc3c2c1-c1ccc(OC)c(OC)c1 [Example 47A, ethyl 4-(3,4-dimethoxyphenyl)-2-(1,2,4-triazol-1-ylmethyl)thieno[2,3-b:5,4-c′]dipyridine-3-carboxylate]
161 to 162 °C | CCOC(=O)c1c(CN(CC)CC)nc2sc3c(c2c1-c1ccc(OC)c(OC)c1)CCN(S(=O)(=O)c1ccccc1)C3 [Example 9A, ethyl 7-benzenesulfonyl-2-(N,N-diethylaminomethyl)-4-(3,4-dimethoxyphenyl)-5,6,7,8-tetrahydrothieno[2,3-b:5,4-c′]dipyridine-3-carboxylate]
101 to 102 °C | COc1ccc(-c2c(Cl)c(CNC(=O)Cn3cncn3)nc3sc4c(c23)CCN(Cc2ccccc2)C4)cc1OC [Example 20B, 7-benzyl-3-chloro-4-(3,4-dimethoxyphenyl)-5,6,7,8-tetrahydro-2-(1,2,4-triazol-1-ylacetylaminomethyl)thieno[2,3-b:5,4-c′]dipyridine]
112 to 114 °C | CCOC(=O)c1c(CN(CC)CC)nc2sc3c(c2c1-c1ccc(CC)cc1)CCN(C(=O)Nc1ccccc1)C3 [Example 36A]
204 to 205 °C | COc1ccc(-c2c(Cl)c(CNC(C)(C)C)nc3sc4c(c23)CCN(C(=O)c2ccccc2)C4)cc1OC [Example 8B, 7-benzoyl-2-(tert-butylaminomethyl)-3-chloro-4-(3,4-dimethoxyphenyl)-5,6,7,8-tetrahydrothieno[2,3-b:5,4-c′]dipyridine]
97 to 99 °C | CCOC(=O)c1c(CN(CC)CC)nc2sc3c(c2c1-c1ccc(CC)cc1)CCN(OC(=O)CC)C3 [Example 39A]
179 to 181 °C | CCOC(=O)c1c(CN(CC)CC)nc2sc3cnccc3c2c1-c1ccc(O)c(OC)c1 [Example 51A, ethyl 2-diethylaminomethyl-4-(4-hydroxy-3-methoxyphenyl)thieno[2,3-b:5,4-c′]dipyridine-3-carboxylate]
177 to 178 °C | CCOC(=O)c1c(CN(CC)CC)nc2sc3c(c2c1-c1ccc(Cl)cc1)CCN(C(=O)c1ccccc1)C3 [Example 4A, ethyl 7-benzoyl-4-(4-chlorophenyl)-2-(N,N-diethylaminomethyl)-5,6,7,8-tetrahydrothieno[2,3-b:5,4-c′]dipyridine-3-carboxylate]
165 to 166 °C | COc1ccc(-c2c(Cl)c(Cn3cncn3)nc3sc4c(c23)CCN(Cc2ccccc2)C4)cc1OC [Example 26B, 7-benzyl-3-chloro-4-(3,4-dimethoxyphenyl)-5,6,7,8-tetrahydro-2-(1,2,4-triazol-1-ylmethyl)thieno[2,3-b:5,4-c′]dipyridine]
123 to 124 °C | CCOC(=O)c1c2c(cn1CN(CC)CC)C1=C(NC(C(C)=O)CC1)[SH]2c1ccc(OC)c(OC)c1 (stereo not shown) [Example 32A, ethyl 2-acetyl-8-(3,4-dimethoxyphenyl)-6-diethylaminomethyl-2,3-dihydro-1H-pyrrolo[3′,4′:4,5]thieno[2,3-b]pyridine-7-carboxylate]
193 to 194 °C | CCOC(=O)c1c(Cn2cncn2)nc2sc3c(c2c1-c1ccc(OC)c(OC)c1)CCN(C(=O)c1ccccc1)C3 [Example 20A, ethyl 7-benzoyl-4-(3,4-dimethoxyphenyl)-5,6,7,8-tetrahydro-2-(1,2,4-triazol-1-ylmethyl)thieno[2,3-b:5,4-c′]dipyridine-3-carboxylate]

melting point | Compound
195 to 197 °C | CCOC(=O)c1c(CCn2cncn2)nc2sc3c(c2c1-c1ccc(OC)c(OC)c1)CCN(C(=O)c1ccc(Cl)cc1)C3 [Example 26A, ethyl 7-(4-chlorobenzoyl)-4-(3,4-dimethoxyphenyl)-5,6,7,8-tetrahydro-2-[2-(1,2,4-triazol-1-yl)ethyl]thieno[2,3-b:5,4-c′]dipyridine-3-carboxylate]
134 to 135 °C | COc1ccc(-c2c(Cl)c(CNC(C)(C)C)nc3sc4c(c23)CCN(Cc2ccccc2)C4)cc1OC [Example 3B, 7-benzyl-2-(tert-butylaminomethyl)-3-chloro-4-(3,4-dimethoxyphenyl)-5,6,7,8-tetrahydrothieno[2,3-b:5,4-c′]dipyridine]
127 to 129 °C | CCOC(=O)c1c(CCCn2cncn2)nc2sc3cnccc3c2c1-c1ccc(OC)c(OC)c1 [Example 29A, ethyl 4-(3,4-dimethoxyphenyl)-2-[3-(1,2,4-triazol-1-yl)propyl]thieno[2,3-b:5,4-c′]dipyridine-3-carboxylate]
180 to 182 °C | CCOC(=O)c1c(Cn2cncn2)nc2sc3ncccc3c2c1-c1ccc(OC)c(OC)c1 [Example 65A, ethyl 4-(3,4-dimethoxyphenyl)-2-(1,2,4-triazol-1-ylmethyl)thieno[2,3-b:5,4-b′]dipyridine-3-carboxylate]
180 to 181 °C | CCOC(=O)c1c(Cn2cncn2)nc2sc3c(c2c1-c1ccc(OC)c(OC)c1)CNCC3 [Example 63A, ethyl 4-(3,4-dimethoxyphenyl)-5,6,7,8-tetrahydro-2-(1,2,4-triazol-1-ylmethyl)thieno[2,3-b:4,5-c′]dipyridine-3-carboxylate]
140 to 141 °C | CCOC(=O)c1c(CN(CC)CC)nc2sc3c(c2c1-c1ccc(CC)cc1)CCN(S(=O)(=O)c1ccccc1)C3 [Example 42A]
184 to 185 °C | CCOC(=O)c1c(Cn2cncn2)nc2sc3c(c2c1-c1ccc(OC)c(OC)c1)CCCN3C(=O)OCc1ccccc1 [Example 56A, ethyl 8-benzyloxycarbonyl-4-(3,4-dimethoxyphenyl)-5,6,7,8-tetrahydro-2-(1,2,4-triazol-1-ylmethyl)thieno[2,3-b:5,4-b′]dipyridine-3-carboxylate]
164 to 165 °C | CCOC(=O)c1c(Cn2cncn2)nc2sc3c(c2c1-c1ccc(OC)c(OC)c1)CCNC3 [Example 21A, ethyl 4-(3,4-dimethoxyphenyl)-5,6,7,8-tetrahydro-2-(1,2,4-triazol-1-ylmethyl)thieno[2,3-b:5,4-c′]dipyridine-3-carboxylate]
172 to 174 °C | CCOC(=O)c1c(Cc2nc[nH]n2)nc2sc3cnccc3c2c1-c1ccc(OC)c(OC)c1 [Example 22A, ethyl 4-(3,4-dimethoxyphenyl)-2-(1,2,4-triazol-ylmethyl)thieno[2,3-b:5,4-c′]dipyridine-3-carboxylate]
169 to 170 °C | CCOC(=O)c1c(Cn2cncn2)nc2sc3c(c2c1-c1ccc(OC)c(OC)c1)CN(C(=O)OCc1ccccc1)CC3 [Example 59A, ethyl 6-benzyloxycarbonyl-4-(3,4-dimethoxyphenyl)-5,6,7,8-tetrahydro-2-(1,2,4-triazol-1-ylmethyl)thieno[2,3-b:4,5-c′]dipyridine-3-carboxylate]
91 to 92 °C | CCOC(=O)c1c(CN(CC)CC)nc2sc3c(c2c1-c1ccc(OC)c(OC)c1)CN(C(=O)c1ccc(Cl)cc1)CC3 [Example 53A, ethyl 6-(4-chlorobenzoyl)-2-diethylaminomethyl-4-(3,4-dimethoxyphenyl)-5,6,7,8-tetrahydrothieno[2,3-b:4,5-c′]dipyridine-3-carboxylate]
104 to 106 °C | CCOC(=O)c1c(CN(CC)CC)nc2sc3c(c2c1-c1ccc(Cl)cc1)CCNC3 [Example 6A, ethyl 4-(4-chlorophenyl)-2-(N,N-diethylaminomethyl)-5,6,7,8-tetrahydrothieno[2,3-b:5,4-c′]dipyridine-3-carboxylate]
162 to 163 °C | COc1ccc(C2(Cl)CC(CNC(C)(C)C)=Nc3sc4c(c32)CCNC4)cc1OC (stereo not shown) [Example 10B, 2-(tert-butylaminomethyl)-4-chloro-4-(3,4-dimethoxyphenyl)-5,6,7,8-tetrahydrothieno(2,3-b:5,4-c′]dipyridine]
135 to 136 °C | CCNCc1nc2sc3c(c2c(-c2ccc(OC)c(OC)c2)c1Cl)CCN(Cc1ccccc1)C3 [Example 1B, 7-benzyl-3-chloro-4-(3,4,-dimethoxyphenyl)-2-ethylaminomethyl-5,6,7,8-tetrahydrothieno[2,3-b:5,4-c′]dipyridine]
157 to 158 °C | COc1cc(-c2c(Cl)c(CNC(C)(C)C)nc3sc4c(c23)CCNC4)ccc1OC(C)C [Example 11B, 2-(tert-butylaminomethyl)-3-chloro-4-(4-isopropoxy-3-methoxyphenyl)-5,6,7,8-tetrahydrothieno[2,3-b:5,4-c′]dipyridine]
